Test system: MV-4-11 cells
Assay: Gene expression microarray analysis (Affymetrix PrimeView) and GSEA
Type: cell-based, human
Set-up: RFU PODN (11730768_x_at) / Fold change /veh PODN (11730768_x_at) / RFU LINC00158 (11744669_a_at) / Fold change /veh LINC00158 (11744669_a_at) / RFU DUSP10 (11751237_a_at) / Fold change /veh DUSP10 (11751237_a_at) / RFU ID3 (11757404_x_at) / Fold change /veh ID3 (11757404_x_at) / RFU PLEKHG5 (11737974_s_at) / Fold change /veh PLEKHG5 (11737974_s_at) / RFU LRRC4B (11730491_at) / Fold change /veh LRRC4B (11730491_at) / RFU GIMAP4 (11747438_a_at) / Fold change /veh GIMAP4 (11747438_a_at) / RFU KRT8 (11758183_x_at) / Fold change /veh KRT8 (11758183_x_at) / RFU CNN1 (11734310_a_at) / Fold change /veh CNN1 (11734310_a_at) / RFU VPS37D (11726825_at) / Fold change /veh VPS37D (11726825_at) / RFU C10orf10 (11716522_x_at) / Fold change /veh C10orf10 (11716522_x_at) / RFU KIR2DL2 /// KIR2DL4 /// KIR2DL5A /// KIR2DL5B /// KIR2DS1 /// KIR2DS2 /// KIR2DS3 /// KIR2DS4 /// KIR3DL3 /// KIR3DL3 /// KIR3DS1 (11738374_at) / Fold change /veh KIR2DL2 /// KIR2DL4 /// KIR2DL5A /// KIR2DL5B /// KIR2DS1 /// KIR2DS2 /// KIR2DS3 /// KIR2DS4 /// KIR3DL3 /// KIR3DL3 /// KIR3DS1 (11738374_at) / RFU C1QL1 (11718748_at) / Fold change /veh C1QL1 (11718748_at) / RFU TMPRSS4 (11747572_a_at) / Fold change /veh TMPRSS4 (11747572_a_at) / RFU HAMP (11756126_x_at) / Fold change /veh HAMP (11756126_x_at) / RFU RNFT2 (11725882_a_at) / Fold change /veh RNFT2 (11725882_a_at) / RFU NR4A2 (11747474_a_at) / Fold change /veh NR4A2 (11747474_a_at) / RFU ABCC12 (11746883_a_at) / Fold change /veh ABCC12 (11746883_a_at) / RFU TMEM136 (11760407_x_at) / Fold change /veh TMEM136 (11760407_x_at) / RFU CLDN22 /// WWC2 (11732394_at) / Fold change /veh CLDN22 /// WWC2 (11732394_at) / RFU HLA-DPB1 (11760878_x_at) / Fold change /veh HLA-DPB1 (11760878_x_at) / RFU SPINT1 (11716480_a_at) / Fold change /veh SPINT1 (11716480_a_at) / RFU GAP43 (11754022_s_at) / Fold change /veh GAP43 (11754022_s_at) / RFU A4GNT (11735810_at) / Fold change /veh A4GNT (11735810_at) / RFU PRB3 (11715151_x_at) / Fold change /veh PRB3 (11715151_x_at) / RFU TUBB4B (11761932_at) / Fold change /veh TUBB4B (11761932_at) / RFU CAPN14 (11732068_a_at) / Fold change /veh CAPN14 (11732068_a_at) / RFU TMCC2 (11721928_a_at) / Fold change /veh TMCC2 (11721928_a_at) / RFU IRGQ (11745062_a_at) / Fold change /veh IRGQ (11745062_a_at) / RFU FAM174B (11720279_a_at) / Fold change /veh FAM174B (11720279_a_at) / RFU TMPRSS4 (11748680_a_at) / Fold change /veh TMPRSS4 (11748680_a_at) / RFU FAM212B (11763350_a_at) / Fold change /veh FAM212B (11763350_a_at) / RFU PLEKHG5 (11743358_a_at) / Fold change /veh PLEKHG5 (11743358_a_at) / RFU ZSCAN30 (11745921_a_at) / Fold change /veh ZSCAN30 (11745921_a_at) / RFU CMKLR1 (11741424_a_at) / Fold change /veh CMKLR1 (11741424_a_at) / RFU LOC101060620 /// MAPK8IP1 (11723275_at) / Fold change /veh LOC101060620 /// MAPK8IP1 (11723275_at) / RFU SPTSSB (11747773_x_at) / Fold change /veh SPTSSB (11747773_x_at) / RFU PRSS12 (11739890_at) / Fold change /veh PRSS12 (11739890_at) / RFU BIN1 (11741810_x_at) / Fold change /veh BIN1 (11741810_x_at) / RFU WNT11 (11732464_a_at) / Fold change /veh WNT11 (11732464_a_at) / RFU C10orf10 (11716521_a_at) / Fold change /veh C10orf10 (11716521_a_at) / RFU C5orf56 (11738089_at) / Fold change /veh C5orf56 (11738089_at) / RFU CYB561 (11721691_x_at) / Fold change /veh CYB561 (11721691_x_at) / RFU ANKRD19P (11752326_a_at) / Fold change /veh ANKRD19P (11752326_a_at) / RFU OR2T12 /// OR2T33 /// OR2T8 (11738714_s_at) / Fold change /veh OR2T12 /// OR2T33 /// OR2T8 (11738714_s_at) / RFU VCAN (11748164_a_at) / Fold change /veh VCAN (11748164_a_at) / RFU JSRP1 (11732532_at) / Fold change /veh JSRP1 (11732532_at) / RFU KRTAP10-11 (11738290_x_at) / Fold change /veh KRTAP10-11 (11738290_x_at) / RFU MYO3A (11730013_a_at) / Fold change /veh MYO3A (11730013_a_at) / RFU EBF3 (11725865_a_at) / Fold change /veh EBF3 (11725865_a_at) / RFU CAMK2N1 (11719241_x_at) / Fold change /veh CAMK2N1 (11719241_x_at) / RFU C5orf56 (11738088_a_at) / Fold change /veh C5orf56 (11738088_a_at) / RFU OLFML3 (11715873_a_at) / Fold change /veh OLFML3 (11715873_a_at) / RFU LOC100653217 /// NTM (11731650_a_at) / Fold change /veh LOC100653217 /// NTM (11731650_a_at) / RFU MAPK11 (11762145_a_at) / Fold change /veh MAPK11 (11762145_a_at) / RFU FIZ1 (11724087_x_at) / Fold change /veh FIZ1 (11724087_x_at) / RFU OASL (11726364_x_at) / Fold change /veh OASL (11726364_x_at) / RFU SOX15 (11748057_x_at) / Fold change /veh SOX15 (11748057_x_at) / RFU CD79A (11719716_a_at) / Fold change /veh CD79A (11719716_a_at) / RFU HIST1H1D (11736915_at) / Fold change /veh HIST1H1D (11736915_at) / RFU CASKIN2 (11723855_a_at) / Fold change /veh CASKIN2 (11723855_a_at) / RFU LOC730098 (11760151_x_at) / Fold change /veh LOC730098 (11760151_x_at) / RFU OR4N2 (11742367_at) / Fold change /veh OR4N2 (11742367_at) / RFU PRRT2 (11749266_a_at) / Fold change /veh PRRT2 (11749266_a_at) / RFU SNX32 (11753110_a_at) / Fold change /veh SNX32 (11753110_a_at) / RFU CDHR5 (11726645_a_at) / Fold change /veh CDHR5 (11726645_a_at) / RFU RCAN1 (11760418_a_at) / Fold change /veh RCAN1 (11760418_a_at) / RFU FAM167A (11723789_a_at) / Fold change /veh FAM167A (11723789_a_at) / RFU FAM26E (11764081_at) / Fold change /veh FAM26E (11764081_at) / RFU ISYNA1 (11749810_s_at) / Fold change /veh ISYNA1 (11749810_s_at) / RFU ACY1 (11761880_at) / Fold change /veh ACY1 (11761880_at) / RFU 11764098_at / Fold change /veh 11764098_at / RFU SAMD14 (11745864_x_at) / Fold change /veh SAMD14 (11745864_x_at) / RFU NPB (11741838_a_at) / Fold change /veh NPB (11741838_a_at) / RFU TMPRSS6 (11731388_a_at) / Fold change /veh TMPRSS6 (11731388_a_at) / RFU KRTAP10-2 (11738614_at) / Fold change /veh KRTAP10-2 (11738614_at) / RFU ARHGAP8 /// PRR5-ARHGAP8 (11727945_x_at) / Fold change /veh ARHGAP8 /// PRR5-ARHGAP8 (11727945_x_at) / RFU KRTAP5-7 /// NADSYN1 (11734609_at) / Fold change /veh KRTAP5-7 /// NADSYN1 (11734609_at) / RFU RASL12 (11751679_a_at) / Fold change /veh RASL12 (11751679_a_at) / RFU CDKN2B (11736163_a_at) / Fold change /veh CDKN2B (11736163_a_at) / RFU PRF1 (11729649_at) / Fold change /veh PRF1 (11729649_at) / RFU, ZNF638 /// ZNF638-IT1 / Fold change vs veh, ZNF638 /// ZNF638-IT1 / RFU, PANK3 / Fold change vs veh, PANK3 / RFU, SH3YL1 / Fold change vs veh, SH3YL1 / RFU, ZEB2 / Fold change vs veh, ZEB2 / RFU, NRIP1 / Fold change vs veh, NRIP1 / RFU, PTTG1IP / Fold change vs veh, PTTG1IP / RFU, CAPN2 / Fold change vs veh, CAPN2 / RFU, MED14 / Fold change vs veh, MED14 / RFU, SNORA58 / Fold change vs veh, SNORA58 / RFU, C1orf63 / Fold change vs veh, C1orf63 / RFU, LRRFIP1 / Fold change vs veh, LRRFIP1 / RFU, NDUFAF7 / Fold change vs veh, NDUFAF7 / RFU, SLC12A2 / Fold change vs veh, SLC12A2 / RFU, IBTK / Fold change vs veh, IBTK / RFU, ESF1 / Fold change vs veh, ESF1 / Fold change vs veh, TMEM50B / RFU, TAOK1 / Fold change vs veh, TAOK1 / RFU, ACBD3 / Fold change vs veh, ACBD3 / RFU, TMA16 / Fold change vs veh, TMA16 / RFU, RWDD3 / Fold change vs veh, RWDD3 / RFU, BCAT1 / Fold change vs veh, BCAT1 / RFU, EDEM3 / Fold change vs veh, EDEM3 / RFU, TMEM33 / Fold change vs veh, TMEM33 / RFU, WDR75 / Fold change vs veh, WDR75 / RFU, AHCTF1 / Fold change vs veh, AHCTF1 / RFU, TFRC / Fold change vs veh, TFRC / RFU, ZDHHC17 / Fold change vs veh, ZDHHC17 / RFU, NOM1 / Fold change vs veh, NOM1 / RFU, ARL8B / Fold change vs veh, ARL8B / RFU, ZBTB11 / Fold change vs veh, ZBTB11 / RFU, TAMM41 / Fold change vs veh, TAMM41 / RFU, KIAA1704 /// LOC100996395 / Fold change vs veh, KIAA1704 /// LOC100996395 / RFU, ING1 / Fold change vs veh, ING1 / RFU, TRMT61B / Fold change vs veh, TRMT61B / RFU, FUBP3 / Fold change vs veh, FUBP3 / RFU, TP53 / Fold change vs veh, TP53 / RFU, TNKS2 / Fold change vs veh, TNKS2 / RFU, ZFP14 / Fold change vs veh, ZFP14 / RFU, ACTR2 / Fold change vs veh, ACTR2 / RFU, PPP3R1 / Fold change vs veh, PPP3R1 / RFU, PIK3R1 / Fold change vs veh, PIK3R1 / RFU, HNRNPA1 / Fold change vs veh, HNRNPA1 / RFU, RNF170 / Fold change vs veh, RNF170 / RFU, ZNF28 / Fold change vs veh, ZNF28 / RFU, RNGTT / Fold change vs veh, RNGTT / RFU, OGT / Fold change vs veh, OGT / RFU, BRD1 / Fold change vs veh, BRD1 / RFU, MARS / Fold change vs veh, MARS / RFU, ZNF655 / Fold change vs veh, ZNF655 / RFU, FAHD1 / Fold change vs veh, FAHD1 / RFU, BDP1 / Fold change vs veh, BDP1 / RFU, LRRCC1 / Fold change vs veh, LRRCC1 / RFU, ARID1A / Fold change vs veh, ARID1A / RFU, ZNF146 / Fold change vs veh, ZNF146 / RFU, ZNF330 / Fold change vs veh, ZNF330 / RFU, GPN3 / Fold change vs veh, GPN3 / RFU, C9orf123 / Fold change vs veh, C9orf123 / RFU, N4BP2L2 / Fold change vs veh, N4BP2L2 / RFU, ARFIP1 / Fold change vs veh, ARFIP1 / RFU, FAM179B / Fold change vs veh, FAM179B / RFU, BCL10 / Fold change vs veh, BCL10 / RFU, UHRF1BP1L / Fold change vs veh, UHRF1BP1L / RFU, BET1 / Fold change vs veh, BET1 / RFU, CNOT2 / Fold change vs veh, CNOT2 / RFU, ZNF268 / Fold change vs veh, ZNF268 / Fold change vs veh, ZNF507 / RFU, DGCR2 / Fold change vs veh, DGCR2 / RFU, WDSUB1 / Fold change vs veh, WDSUB1 / Fold change vs veh, HSP90B1 /// MIR3652 / RFU, ADSS / Fold change vs veh, ADSS / RFU, GK / Fold change vs veh, GK / RFU, ZNF148 / Fold change vs veh, ZNF148 / RFU, TAF9 / Fold change vs veh, TAF9 / RFU, SLC1A5 / Fold change vs veh, SLC1A5 / RFU, SLMO2 / Fold change vs veh, SLMO2 / RFU, ABCC4 / Fold change vs veh, ABCC4 / RFU, LOC101060439 /// RAP1B / Fold change vs veh, LOC101060439 /// RAP1B / RFU, RFX7 / Fold change vs veh, RFX7 / RFU, GTPBP10 / Fold change vs veh, GTPBP10 / RFU, CNEP1R1 / Fold change vs veh, CNEP1R1 / RFU, BIVM-ERCC5 /// ERCC5 / Fold change vs veh, BIVM-ERCC5 /// ERCC5 / RFU, ILF3 / Fold change vs veh, ILF3 / RFU 11762660_at / Fold change /veh 11762660_at / RFU VCAN (11757783_s_at) / Fold change /veh VCAN (11757783_s_at) / RFU DDX43 (11728927_at) / Fold change /veh DDX43 (11728927_at) / RFU KRT8 (11758188_x_at) / Fold change /veh KRT8 (11758188_x_at) / RFU NKD1 (11759106_at) / Fold change /veh NKD1 (11759106_at) / RFU SRD5A1 (11742802_a_at) / Fold change /veh SRD5A1 (11742802_a_at) / RFU TPSAB1 /// TPSB2 (11721975_s_at) / Fold change /veh TPSAB1 /// TPSB2 (11721975_s_at) / RFU GSTM3 (11746129_a_at) / Fold change /veh GSTM3 (11746129_a_at) / RFU IL23R (11737362_x_at) / Fold change /veh IL23R (11737362_x_at) / RFU TMEM51 (11727254_a_at) / Fold change /veh TMEM51 (11727254_a_at) / RFU PIWIL2 (11732686_x_at) / Fold change /veh PIWIL2 (11732686_x_at) / RFU ORM1 (11744905_x_at) / Fold change /veh ORM1 (11744905_x_at) / RFU CCDC152 (11743942_at) / Fold change /veh CCDC152 (11743942_at) / RFU ECM1 (11717891_a_at) / Fold change /veh ECM1 (11717891_a_at) / RFU IL23R (11748794_a_at) / Fold change /veh IL23R (11748794_a_at) / RFU TNFAIP8L3 (11732012_x_at) / Fold change /veh TNFAIP8L3 (11732012_x_at) / RFU MBOAT4 (11741988_at) / Fold change /veh MBOAT4 (11741988_at) / RFU 11764193_at / Fold change /veh 11764193_at / RFU TMEM53 (11763286_at) / Fold change /veh TMEM53 (11763286_at) / RFU MAGEB2 (11727129_at) / Fold change /veh MAGEB2 (11727129_at) / RFU TMEM200A (11744735_a_at) / Fold change /veh TMEM200A (11744735_a_at) / RFU CCDC152 (11751479_a_at) / Fold change /veh CCDC152 (11751479_a_at) / RFU FAM211A (11726209_a_at) / Fold change /veh FAM211A (11726209_a_at) / RFU RGS16 (11746705_a_at) / Fold change /veh RGS16 (11746705_a_at) / RFU VCAN (11755009_s_at) / Fold change /veh VCAN (11755009_s_at) / RFU RHOB (11743442_s_at) / Fold change /veh RHOB (11743442_s_at) / RFU RGS16 (11720943_a_at) / Fold change /veh RGS16 (11720943_a_at) / RFU RGS16 (11720944_at) / Fold change /veh RGS16 (11720944_at) / RFU, VPS4B / Fold change vs veh, VPS4B / RFU, CREB1 / Fold change vs veh, CREB1 / RFU, DNAJC13 / Fold change vs veh, DNAJC13 / RFU, GNAQ / Fold change vs veh, GNAQ / RFU, CDK5R1 / Fold change vs veh, CDK5R1 / RFU, ZRANB3 / Fold change vs veh, ZRANB3 / RFU, CUL4A / Fold change vs veh, CUL4A / RFU, CCNY / Fold change vs veh, CCNY / RFU, UFL1 / Fold change vs veh, UFL1 / RFU, COG3 / Fold change vs veh, COG3 / RFU, DIAPH2 / Fold change vs veh, DIAPH2 / RFU, SKA2 / Fold change vs veh, SKA2 / RFU, AFF3 / Fold change vs veh, AFF3 / RFU, LMF1 / Fold change vs veh, LMF1 / RFU, IPO11 / Fold change vs veh, IPO11 / RFU, DFFB / Fold change vs veh, DFFB / RFU, FOXP1 / Fold change vs veh, FOXP1 / RFU, CARD8 / Fold change vs veh, CARD8 / RFU, STRN3 / Fold change vs veh, STRN3 / RFU, ADK / Fold change vs veh, ADK / RFU, RASSF2 / Fold change vs veh, RASSF2 / RFU, WIPF1 / Fold change vs veh, WIPF1 / RFU, LARP1B / Fold change vs veh, LARP1B / RFU, RASA1 / Fold change vs veh, RASA1 / RFU, RB1 / Fold change vs veh, RB1 / RFU, PPFIA1 / Fold change vs veh, PPFIA1 / RFU, MAT2A / Fold change vs veh, MAT2A / RFU, CCT5 / Fold change vs veh, CCT5 / RFU, WDR92 / Fold change vs veh, WDR92 / RFU, CUX1 / Fold change vs veh, CUX1 / RFU, TTC7A / Fold change vs veh, TTC7A / RFU, TMEM135 / Fold change vs veh, TMEM135 / RFU, DEPTOR / Fold change vs veh, DEPTOR / RFU, CPM / Fold change vs veh, CPM / RFU, DNAJB6 / Fold change vs veh, DNAJB6 / RFU, CACNA2D3 / Fold change vs veh, CACNA2D3 / RFU, DTX4 / Fold change vs veh, DTX4 / RFU, TFCP2 / Fold change vs veh, TFCP2 / RFU, GMCL1 /// GMCL1P1 / Fold change vs veh, GMCL1 /// GMCL1P1 / RFU, AEBP2 / Fold change vs veh, AEBP2 / RFU, SNHG1 /// SNORD22 /// SNORD25 /// SNORD26 /// SNORD27 /// SNORD28 /// SNORD29 /// SNORD31 / Fold change vs veh, SNHG1 /// SNORD22 /// SNORD25 /// SNORD26 /// SNORD27 /// SNORD28 /// SNORD29 /// SNORD31 / Fold change (Aza/veh), C12orf56 (ProbeSet 11735607_a_at) / Fold change (ACY-1035/veh), C12orf56 (ProbeSet 11735607_a_at) / Fold change (Aza/veh), FGFR1OP (ProbeSet 11751329_s_at) / Fold change (ACY-1035/veh), FGFR1OP (ProbeSet 11751329_s_at) / Fold change (Aza/veh), VPS36 (ProbeSet 11739960_a_at) / Fold change (ACY-1035/veh), VPS36 (ProbeSet 11739960_a_at) / RFU SYPL1 (11715823_x_at) / Fold change /veh SYPL1 (11715823_x_at) / RFU IGFBP7 (11715501_s_at) / Fold change /veh IGFBP7 (11715501_s_at) / RFU REEP3 (11722064_at) / Fold change /veh REEP3 (11722064_at) / RFU IGLL1 (11728026_x_at) / Fold change /veh IGLL1 (11728026_x_at): dose or concentration left out as unconfirmed
Settings: MV-4-11 cells, 48 hours

Structure (SMILES): Nc1ccc(-c2cccs2)cc1NC(=O)c1ccc2c(c1)cc(C1CC1)n2CCN1CCOCC1 [ACY-1035]
- Fold change /veh SNX32 (11753110_a_at): 1.17
